Source: patent publication US10106853B2, “CUL4B as predictive biomarker for cancer treatment” (CORNELL UNIVERSITY, priority 2012, dated 2018)
Where two headings read alike, the source gives them in different places.

Tests used:
BT474 xenograft tumors = assay type: in vivo, athymic Nu/J nude mice; settings: for Xenograft tumor growth under topotecan treatment: topotecan i.p. 5 mg/g every fourth day
Description: (§1) FIG. 5. CUL4B inactivation sensitized BT474 xenograft tumors to topotecan. Stable TGL-BT474 cells (BT474 cells stably expressing GFP-luciferase reporter) were established by retroviral transduction and FACS sorting. The resulting TGL-BT474 cells were infected with recombinant lentiviruses expressing non-targeting shCtrl, shCUL4A or shCUL4B, followed by selection of infected cells with 4 μg/ml puromycine for one week. A) Knockdown of endogenous CUL4A and 4B were verified by immunoblotting. B, C) 1×10^7 of control, CUL4A^k/d, or CUL4B^k/d TGL-BT474 cells were injected subcutaneously in the right flank of each athymic Nu/J nude mice, treated (i.p.) with toptoecan at a dose of 5 mg/g on every 4th day, and tumor burden was measure by bioluminescent imaging. Statistical significance in tumor burden between control and CUL4A^k/d or CUL4B^k/d xenograph are assessed by a two-tailed unpaired student t-test (***: p<0.001). D) Growth rate of control, CUL4A^k/d and CUL4B^k/d BT474 cells in vitro. The same number of control, CUL4A^k/d and CUL4B^k/d BT474 cells were seeded to 96-well plates and cell proliferation was measured using the XTT Cell Proliferation Assay Kit. The data represent the mean value of fold change of cells. Bars indicate the S.E. of six independent experiments. Statistical significance in cellular rate between control cells and CUL4A^k/d or CUL4B^k/d cells are assessed by student's t-test. E-F) Growth rate of control, CUL4A^k/d and CUL4B^k/d TGL-BT474 xenograft in vivo. 1×10^7 of control, CUL4A^k/d or CUL4B^k/d TGL-BT474 cells were injected subcutaneously in the right flank of each mouse of athymic Nu/J nude mice, and tumor burden was measured by bioluminescent imaging (E). On the 22nd day, tumors were collected, and the weight of exercised tumors was measured after mice were sacrificed (F).
The effect of CUL4B knockdown on an organism's response to CPT treatment was tested in vivo by examining the sensitivity of BT474-CUL4B^k/d, BT474-CUL4A^k/d and control BT474 xenograft tumors to topotecan treatment. Topotecan, (S)-10-[(dimethylamino)methyl]-4-ethyl-4,9-dihydroxy-1H-pyrano[3′,4′:6,7]indolizino[1,2-b]quinoline-3,14(4H,12H)-dione monohydrochloride, is an FDA-approved Top1-directed chemotherapy for the treatment of ovarian, cervical and small cell lung cancer, under the trade name Hycamtin™. Nude mice bearing BT474 xenografts on dorsal skin were treated with topotecan every four (4) days for a period of 44 days. Prior to topotecan administration, the size of the xenograft tumors were identical (FIG. 5). Topotecan was then administered via intraperitoneal injection, and tumor mass was monitors by bioluminescent imaging in four day intervals. […] To rule out the possibility that the growth rate of xenografts were altered during the CUL4B inactivation process (treatment with shRNA) the tumor mass of the three xenograft groups were measured in the absence of topotecan treatment and the weight of the exercised xenograft tumors were analyzed.
Six week old Female athymic Nu/J nude mice were purchased from Jackson Labs. Mice were housed in laminar air-flow cabinets under specific pathogen-free conditions. Nude mice were inoculated with 0.36 mg 60-day-release 17-b-estradiol pellets (Innovative Research) 24 to 48 hours before implantation of BT-474 cells. 1×10^7 BT-474 cells in 50 ul DMEM medium and 300 ul diluted BD Matrigel™ Basement Membrane Matrix (BD Bioscience, Matrix: PBS is 2:1) were injected subcutaneously in the right flank of each mouse. Tumors were detected once every four days by an IVIS Imaging System (Caliper Life Sciences). When tumors were available to be detected, mice were initially treated with topotecan. Topotecan was administered intraperitoneally on every fourth day from the initiation of therapy at doses of 5 mg/g.
The IVIS Imaging System (Caliper life sciences) was used for bioluminescent image acquisition and analysis. […]

BT474 cells = assay: XTT Cell Proliferation Assay, growth rate of BT474 cells in vitro; assay type: cell-based, Human; settings: knockdown cells vs control, no drug
Description: as §1, with “B, C) 1×10^7 of control, CUL4A^k/d, or CUL4B^k/d TGL-BT474 cells were injected subcutaneously in the right flank of each athymic Nu/J nude mice, treated (i.p.) with toptoecan at a dose of 5 mg/g on every 4th day, and tumor burden was measure by bioluminescent imaging.” left out, “D) Growth rate of control, CUL4A^k/d and CUL4B^k/d BT474 cells in vitro.” left out, “The data represent the mean value of fold change of cells. Bars indicate the S.E. of six independent experiments.” left out, “E-F) Growth rate of control, CUL4A^k/d and CUL4B^k/d TGL-BT474 xenograft in vivo.” left out

Top1 = target: T1, Top1 (Homo sapiens, UniProt P11387); assay: CPT-induced TOP1 down regulation assay (immunoblotting); assay type: cell-based; settings: BT474 cells, lentiviral shRNA; CPT 50 μM, 1 to 1.5 hr
T1 construct: CPT-induced TOP1 degradation in breast cancer cell lines; host or cells: human breast cancer cell lines BT474, BT20, MCF-7, MDA-MB-231, T47D, Sk-Br-3 (MCF-10A as control)
T1 sequence (P11387 1-765): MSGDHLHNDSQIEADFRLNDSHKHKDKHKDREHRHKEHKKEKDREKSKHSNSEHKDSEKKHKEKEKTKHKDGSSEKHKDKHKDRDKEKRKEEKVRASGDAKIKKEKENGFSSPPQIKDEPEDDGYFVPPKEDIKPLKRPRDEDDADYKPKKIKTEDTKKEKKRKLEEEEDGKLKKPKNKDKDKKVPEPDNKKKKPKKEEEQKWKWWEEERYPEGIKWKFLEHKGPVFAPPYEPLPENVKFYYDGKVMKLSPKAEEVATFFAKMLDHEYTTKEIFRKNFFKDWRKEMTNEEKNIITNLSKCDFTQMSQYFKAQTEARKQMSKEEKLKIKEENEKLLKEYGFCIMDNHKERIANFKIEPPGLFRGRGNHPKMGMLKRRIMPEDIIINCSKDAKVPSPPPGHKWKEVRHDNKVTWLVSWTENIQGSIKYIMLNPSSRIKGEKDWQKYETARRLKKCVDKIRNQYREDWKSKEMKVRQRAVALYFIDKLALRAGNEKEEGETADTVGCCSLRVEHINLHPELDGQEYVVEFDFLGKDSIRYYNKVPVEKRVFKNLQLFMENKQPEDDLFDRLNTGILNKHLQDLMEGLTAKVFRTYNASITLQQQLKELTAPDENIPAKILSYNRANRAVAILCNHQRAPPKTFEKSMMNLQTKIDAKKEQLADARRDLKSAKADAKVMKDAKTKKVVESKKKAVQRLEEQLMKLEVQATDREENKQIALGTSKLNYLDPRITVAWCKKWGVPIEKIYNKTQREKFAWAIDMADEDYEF
Description: FIG. 1. CPT-induced TOP1 degradation in breast cancer cell lines. A) Expression of endogenous CUL4A and 4B in breast cancer cell lines. Total cell lysates were prepared from the indicated breast cancer cell lines and subjected to SDS PAGE and immunoblotting with antibodies against CUL4A, 4B and α-tubulin. The non-cancerous MCF-10A cell line was used as a control for comparison. B) CPT-induced TOP1 degradation in breast cancer cell lines. Cells were treated with 12.5 μM CPT or 1% DMSO for 4 hours, replenished with CPT-free fresh medium and incubated at 37° C. for 30 minutes to reverse the formation of TOP1 cleavable complex. Cells were then lysed and immunoblotted with the TOP1 and α-tubulin antibodies.
FIG. 2. CUL4B interacted with Top1 and induced Top1 degradation in the presence of CPT. A) Knockdown of CUL4B impaired CPT-induced Top1 degradation. BT474 cells were infected with lentiviral shCUL4B, shCUL4A or control non-targeting shRNA, and selected for stable CUL4B^k/d or CUL4A^k/d cells upon treatment with puromycin. Following treatment with CPT (50 μM) for 1 hour, cells were replenished with CPT-free fresh medium and incubated at 37° C. for 30 minutes. Top1 degradation was assessed by immunoblotting with an anti-Top1 antibody. Levels of α-tubulin were measured as a loading control. B) Association of CUL4B with Top1 following CPT treatment. BT474 cells were treated with proteosome inhibitor MG132 (15 μM) for 3 hours, and were subjected to crosslinking with 0.2 mM Dithiobis[succinimidyl propionate](DSP) for the last 30 min at room temperature. Cell lysates were prepared, and immunoprecipitated with the anti-Top1 or anti-CUL4B antibodies, and then immunoblotted using antibodies against CUL4B or Top1, respectively. IgG immunoprecipitates served as the negative control. C) Knockdown of CUL4B using a second shCUL4B-2 impaired CPT-induced Top1 degradation. BT474 cells were infected with lentiviral shCUL4B-2, shCUL4A-2 or control non-targeting shRNA and selected for stable CUL4B^k/d or CUL4A^k/d cells upon treatment with puromycin. Following treatment with CPT (50 μM) for 1.5 hr, cells were replenished with CPT-free fresh medium and incubated at 37° C. for 30 min. Top1 degradation was assessed by immunoblotting with the anti-Top1 antibody. Levels of α-tubulin were measured as a loading control. D) CUL4B inactivation sensitized BT474 cells to cytotoxic killing by camptothecin. BT474, BT474-CUL4A^k/d or BT474-CUL4B^k/d cells were synchronized with 1 μM nocodazole for 13 hours released in fresh medium, treated with the indicated concentrations of CPT for three days, and subjected to the XTT assay to measure the cytotoxic responses to CPT. […] The bars indicate the S.E. of six independent experiments. Statistical significance in cellular response to CPT between control BT474 cells and CUL4A^k/d or CUL4B^k/d cells were assessed by a two-tailed unpaired student t-test (***: p<0.001). The same results were obtained with a second lentiviral shRNA for CUL4A and CUL4B, as well as in T47D breast cancer cells. E, F) Knockdown of CUL4B increased the sensitivity of T47D cells to camptothecin. […] Statistical significance in cellular response to camptothecin between control cells and CUL4A^k/d or CUL4B^k/d BT474 cells are assessed by student's t-test.
CPT-induced Top1 degradation was monitored by immunoblotting of the alkaline lysates. […]

CC[C@@]1(O)C(=O)OCc2c1cc1n(c2=O)Cc2cc3c(CN(C)C)c(O)ccc3nc2-1.Cl [topotecan, (S)-10-[(dimethylamino)methyl]-4-ethyl-4,9-dihydroxy-1H-pyrano[3′,4′:6,7]indolizino[1,2-b]quinoline-3,14(4H,12H)-dione monohydrochloride]
Xenograft tumor growth under topotecan treatment (BT474 xenograft tumors; BT474-CUL4A k/d xenografts, 44 days): continue to grow | Xenograft tumor growth under topotecan treatment (BT474 xenograft tumors; BT474-CUL4B k/d xenografts vs control and CUL4A k/d groups (p<0.001)): largely attenuated | Xenograft tumor growth under topotecan treatment (BT474 xenograft tumors; control BT474 xenografts, 44 days): continue to grow | Size of control and shCUL4A xenografts relative to shCUL4B xenografts (BT474 xenograft tumors; final day of topotecan treatment): 5 fold | Detection of xenografts by bioluminescent imaging (BT474 xenograft tumors; several shCUL4B xenografts, final day of topotecan treatment): not detectable

shCUL4A: lentiviral shRNA CUL4A sequence purchased from Sigma Aldrich (CCGGGCAGAACTGATCGCAAAGCATCTCGAGATGCTTTGCGATCAGTTCTGCTTTTT)
Growth rate of cultured BT474 cells in vitro (BT474 cells): reduced the growth rate slightly | Growth rate of xenografts vs control (BT474 xenograft tumors; without topotecan administration, tumor burden and excised tumor weight): no significant difference

shCUL4B-2: second lentiviral shRNA CUL4B sequence purchased from Sigma Aldrich (CCGGGCAATTCTTCAGAAAGGTTTACTCGAGTAAACCTTTCTGAAGAATTGCTTTTT)
Effect of shRNA knockdown on CPT-induced Top1 degradation (Top1): impaired
